Measurements from patent US10544143B2, “4-azaindole compounds” (BRISTOL-MYERS SQUIBB COMPANY, priority 2017, dated 2020).
Like-named read-outs stand apart in the source and are kept apart here.

Assays:
[1] = target: human TLR7 (Homo sapiens (Human), UniProt Q9NYK1); experiment: TLR7 inhibition reporter assay (HEK-Blue SEAP); assay type: cell-based
[2] = target: human TLR9 (Homo sapiens (Human), UniProt Q9NR96); experiment: TLR9 inhibition reporter assay (HEK-Blue SEAP); settings: read-out: TLR9 IC50;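 also: SEAP driven by an IFN-β minimal promoter with NF-κB and AP-1 sites, read after 22 h, compounds dosed 0.05 nM–50 µM, inhibition scaled between agonist plus DMSO and reference-inhibitor wells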
human TLR9, sequence (Q9NR96 26-1032): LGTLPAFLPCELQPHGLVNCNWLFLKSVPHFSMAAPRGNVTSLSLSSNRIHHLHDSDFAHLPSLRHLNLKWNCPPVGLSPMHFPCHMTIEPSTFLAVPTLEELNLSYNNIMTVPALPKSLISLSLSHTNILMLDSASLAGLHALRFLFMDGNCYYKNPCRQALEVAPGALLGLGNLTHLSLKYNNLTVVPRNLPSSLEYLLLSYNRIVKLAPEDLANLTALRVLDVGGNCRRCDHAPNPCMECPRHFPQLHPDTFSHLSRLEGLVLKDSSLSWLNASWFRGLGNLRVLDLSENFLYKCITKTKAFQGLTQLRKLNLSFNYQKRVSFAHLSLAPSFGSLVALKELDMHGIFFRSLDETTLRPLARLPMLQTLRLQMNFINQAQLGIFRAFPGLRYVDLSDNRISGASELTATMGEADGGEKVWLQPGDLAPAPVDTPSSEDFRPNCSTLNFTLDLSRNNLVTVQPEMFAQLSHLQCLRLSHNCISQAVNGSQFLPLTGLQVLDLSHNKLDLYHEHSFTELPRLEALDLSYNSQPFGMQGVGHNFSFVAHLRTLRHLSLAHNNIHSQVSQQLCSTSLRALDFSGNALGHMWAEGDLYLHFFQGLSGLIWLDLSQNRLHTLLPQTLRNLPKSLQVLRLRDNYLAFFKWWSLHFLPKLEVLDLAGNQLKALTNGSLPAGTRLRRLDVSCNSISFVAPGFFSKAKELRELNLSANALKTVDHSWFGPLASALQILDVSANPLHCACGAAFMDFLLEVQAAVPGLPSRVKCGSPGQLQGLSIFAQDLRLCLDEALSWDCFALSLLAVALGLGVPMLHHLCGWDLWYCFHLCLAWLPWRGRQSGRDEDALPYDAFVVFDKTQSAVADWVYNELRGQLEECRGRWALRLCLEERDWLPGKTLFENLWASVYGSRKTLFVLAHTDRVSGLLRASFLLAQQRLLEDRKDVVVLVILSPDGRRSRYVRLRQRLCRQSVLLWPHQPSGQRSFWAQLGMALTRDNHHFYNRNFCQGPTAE

[3] = target: human TLR8 (Homo sapiens (Human), UniProt Q9NR97); experiment: TLR8 inhibition reporter assay (HEK-Blue SEAP); settings: read-out: TLR8 IC50;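 also: SEAP driven by IFN-β minimal promoter carrying NF-κB and AP-1 sites, compounds dosed 0.05 nM to 50 µM for 22 h, inhibition scaled between agonist-plus-DMSO and reference-inhibitor wells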
human TLR8, sequence (Q9NR97 27-1041): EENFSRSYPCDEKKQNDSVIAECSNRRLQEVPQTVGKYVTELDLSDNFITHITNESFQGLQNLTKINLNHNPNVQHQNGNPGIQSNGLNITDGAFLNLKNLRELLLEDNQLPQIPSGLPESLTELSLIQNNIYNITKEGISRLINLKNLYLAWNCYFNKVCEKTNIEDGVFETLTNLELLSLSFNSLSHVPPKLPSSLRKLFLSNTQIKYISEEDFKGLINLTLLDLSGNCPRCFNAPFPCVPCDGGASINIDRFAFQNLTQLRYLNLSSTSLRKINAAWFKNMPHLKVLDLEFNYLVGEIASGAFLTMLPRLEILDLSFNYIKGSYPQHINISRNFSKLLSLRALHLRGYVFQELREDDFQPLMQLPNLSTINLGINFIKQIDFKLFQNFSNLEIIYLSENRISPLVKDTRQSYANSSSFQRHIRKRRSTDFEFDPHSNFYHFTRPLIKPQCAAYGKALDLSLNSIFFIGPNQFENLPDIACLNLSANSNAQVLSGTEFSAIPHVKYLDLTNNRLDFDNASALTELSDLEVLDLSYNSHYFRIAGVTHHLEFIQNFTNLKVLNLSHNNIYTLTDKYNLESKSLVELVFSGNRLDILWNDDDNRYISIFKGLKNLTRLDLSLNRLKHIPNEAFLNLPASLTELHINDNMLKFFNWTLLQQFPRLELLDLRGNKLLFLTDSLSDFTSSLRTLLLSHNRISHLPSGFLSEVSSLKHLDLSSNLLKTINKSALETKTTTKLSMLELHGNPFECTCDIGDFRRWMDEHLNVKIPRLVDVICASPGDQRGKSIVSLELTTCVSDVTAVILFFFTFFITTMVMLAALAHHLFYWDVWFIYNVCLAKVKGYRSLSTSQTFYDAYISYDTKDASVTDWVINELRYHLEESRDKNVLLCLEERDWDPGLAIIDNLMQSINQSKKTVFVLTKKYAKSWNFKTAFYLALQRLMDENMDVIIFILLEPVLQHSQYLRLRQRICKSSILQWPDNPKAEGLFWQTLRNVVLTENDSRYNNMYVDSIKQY

[4] = HEK-Blue cells overexpressing human TLR7, gardiquimod 7.5 μM stimulation, SEAP reporter
[5] = HEK-Blue cells overexpressing human TLR9, ODN2006 5 nM stimulation, SEAP reporter
[6] = HEK-Blue cells overexpressing human TLR8, R848 15.9 μM stimulation, SEAP reporter
[7] = HEK-Blue human TLR7 cells, gardiquimod 7.5 μM
[8] = HEK-Blue human TLR9 cells, ODN2006 5 nM
[9] = HEK-Blue human TLR8 cells, R848 15.9 μM
[10] = HEK-Blue cells overexpressing human TLR7, SEAP reporter, gardiquimod 7.5 μM
[11] = HEK-Blue cells overexpressing human TLR9, SEAP reporter, ODN2006 5 nM
[12] = HEK-Blue cells overexpressing human TLR8, SEAP reporter, R848 15.9 μM

human TLR7, sequence (Q9NYK1 27-1049): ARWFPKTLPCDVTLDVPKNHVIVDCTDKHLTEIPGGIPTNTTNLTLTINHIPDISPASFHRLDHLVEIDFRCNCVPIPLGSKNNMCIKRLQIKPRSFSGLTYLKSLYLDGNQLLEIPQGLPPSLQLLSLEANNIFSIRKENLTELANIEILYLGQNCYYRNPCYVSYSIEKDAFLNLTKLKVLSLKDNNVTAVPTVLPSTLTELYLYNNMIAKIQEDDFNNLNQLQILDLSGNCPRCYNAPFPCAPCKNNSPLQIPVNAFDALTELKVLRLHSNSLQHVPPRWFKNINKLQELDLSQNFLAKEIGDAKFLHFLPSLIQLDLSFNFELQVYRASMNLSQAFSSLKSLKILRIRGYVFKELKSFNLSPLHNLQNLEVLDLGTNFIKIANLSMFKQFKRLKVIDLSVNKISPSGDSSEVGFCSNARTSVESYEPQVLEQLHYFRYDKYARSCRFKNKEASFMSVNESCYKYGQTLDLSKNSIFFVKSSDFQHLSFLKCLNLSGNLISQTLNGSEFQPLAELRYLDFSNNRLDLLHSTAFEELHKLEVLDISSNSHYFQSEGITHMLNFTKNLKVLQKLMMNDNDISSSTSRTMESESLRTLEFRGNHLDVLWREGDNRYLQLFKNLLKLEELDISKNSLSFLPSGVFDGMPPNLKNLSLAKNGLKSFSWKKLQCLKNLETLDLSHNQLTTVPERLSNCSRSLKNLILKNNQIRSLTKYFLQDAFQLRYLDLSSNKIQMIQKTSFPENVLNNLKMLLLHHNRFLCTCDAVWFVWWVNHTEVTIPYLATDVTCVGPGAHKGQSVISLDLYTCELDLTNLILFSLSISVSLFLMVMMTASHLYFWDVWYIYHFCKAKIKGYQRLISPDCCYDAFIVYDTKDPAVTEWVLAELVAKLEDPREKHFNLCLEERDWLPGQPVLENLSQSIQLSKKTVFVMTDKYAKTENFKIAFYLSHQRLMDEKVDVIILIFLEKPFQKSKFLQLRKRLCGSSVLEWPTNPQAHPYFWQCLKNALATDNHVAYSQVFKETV

CC(C)c1c(-c2cn(CC#N)c3ncccc23)[nH]c2ccc(C3CCC(NC4CCCOC4)CC3)nc12 (stereo not drawn) [Example 274]
IC50 [1, 4]: 8.5 nM
IC50 [2, 5]: 474 nM
IC50 [3, 6]: 3.7 nM

Cc1c(-c2[nH]c3ccc(N4CC5(CCN(CC(=O)N(C)C)CC5)C4)nc3c2C(C)C)cn2ncnc2c1C [Example 44]
IC50 [1, 4]: 12 nM
IC50 [2, 5]: 3370 nM
IC50 [3, 6]: 15 nM

COc1cc(-c2[nH]c3ccc(N4CCN(CCC(C)(C)C)CC4)nc3c2C(C)C)cn2ncnc12 [Example 114]
IC50 [1, 4]: 4.7 nM
IC50 [2, 5]: 7590 nM
IC50 [3, 6]: 1.8 nM

Cc1c(-c2[nH]c3ccc(C4CCC(N5CC6(CCS6(=O)=O)C5)CC4)nc3c2C(C)C)cn2ncnc2c1C (stereo not drawn) [Example 1077]
IC50 [1, 7]: 18 nM
IC50 [2, 8]: 21800 nM
IC50 [3, 9]: 38 nM

COc1cc(-c2[nH]c3ccc(C4CN(CC(C)(C)O)C4)nc3c2C(C)C)cn2ncnc12 [Example 657]
IC50 [1, 10]: 2.1 nM
IC50 [2, 11]: 842 nM
IC50 [3, 12]: 10 nM

Cc1c(-c2[nH]c3ccc(C4CCC(NCCS(C)(=O)=O)CC4)nc3c2C(C)C)cn2ncnc2c1C (stereo not drawn) [Example 450]
IC50 [1, 10]: 0.61 nM
IC50 [2, 11]: 1190 nM
IC50 [3, 12]: 0.71 nM

Cc1c(-c2[nH]c3ccc(N4CCN(CCCS(C)(=O)=O)C[C@@H]4C)nc3c2C(C)C)cn2ncnc2c1C [Example 805]
IC50 [1, 7]: 2.1 nM
IC50 [2, 8]: 24200 nM
IC50 [3, 9]: 0.57 nM

Cc1c(-c2[nH]c3ccc(N4CCN[C@H](C)C4)nc3c2C(C)C)cn2ncnc2c1C [Example 822]
IC50 [1, 7]: 1.1 nM
IC50 [2, 8]: 6910 nM
IC50 [3, 9]: 0.24 nM

Cc1c(-c2[nH]c3ccc(N4CCN(C(=O)CN5CCOCC5)CC4)nc3c2C(C)C)cn2ncnc2c1C [Example 143]
IC50 [1, 4]: 7.8 nM
IC50 [2, 5]: > 50000 nM
IC50 [3, 6]: 4.5 nM

Cc1c(-c2[nH]c3ccc(N4CC5(CN(C(=O)CCN(C)C)C5)C4)nc3c2C(C)C)cn2ncnc2c1C [Example 1006]
IC50 [1, 7]: 3.6 nM
IC50 [2, 8]: 339 nM
IC50 [3, 9]: 9.6 nM

COc1cc(-c2[nH]c3ccc(C4CCC(N5CCCC5)CC4)nc3c2C(C)C)cn2ncnc12 (stereo not drawn) [Example 174]
IC50 [1, 4]: 4.3 nM
IC50 [2, 5]: 1470 nM
IC50 [3, 6]: 37 nM

COc1cc(-c2[nH]c3ccc(C4CCC(NC(=O)CN(C)C)C4)nc3c2C(C)C)cn2ncnc12 (stereo not drawn) [Example 712]
IC50 [1, 10]: 1.9 nM
IC50 [2, 11]: 3140 nM
IC50 [3, 12]: 11 nM

Cc1c(-c2[nH]c3ccc(C4CCN(C5COC5)CC4)nc3c2C(C)C)cn2ncnc2c1C [Example 538]
IC50 [1, 10]: 2 nM
IC50 [2, 11]: 8180 nM
IC50 [3, 12]: 3.3 nM

Cc1c(-c2[nH]c3ccc(C4CCC(N5CCC[C@H]5CO)CC4)nc3c2C(C)C)cn2ncnc2c1C (stereo partly drawn) [Example 393]
IC50 [1, 4]: 0.47 nM
IC50 [2, 5]: 360 nM
IC50 [3, 6]: 1.3 nM

COc1cc(-c2[nH]c3ccc(C4CC(N(C)CCS(C)(=O)=O)C4)nc3c2C(C)C)cn2ncnc12 (stereo not drawn) [Example 642]
IC50 [1, 10]: 14 nM
IC50 [2, 11]: 18100 nM
IC50 [3, 12]: 26 nM

Cc1c(-c2[nH]c3ccc(N4CC5(CN(CC(=O)N(C)C)C5)C4)nc3c2C(C)C)cn2ncnc2c1C [Example 742, 2-(6-(2-(7,8-dimethyl-[1,2,4]triazolo[1,5-a]pyridin-6-yl)-3-isopropyl-1H-pyrrolo[3,2-b]pyridin-5-yl)-2,6-diazaspiro[3.3]heptan-2-yl)-N,N-dimethylacetamide]
IC50 [1, 10]: 2.9 nM
IC50 [2, 11]: 4580 nM
IC50 [3, 12]: 3.1 nM

CNC(=O)CN(C)C1CCC(c2ccc3[nH]c(-c4cn5ncnc5c(C)c4C)c(C(C)C)c3n2)CC1 (stereo not drawn) [Example 403]
IC50 [1, 10]: 7.7 nM
IC50 [2, 11]: 4280 nM
IC50 [3, 12]: 44 nM

Cc1c(-c2[nH]c3ccc(N4C[C@@H](C)NC[C@H]4C)nc3c2C(C)C)cn2ncnc2c1C [Example 993]
IC50 [1, 7]: 0.82 nM
IC50 [2, 8]: 7230 nM
IC50 [3, 9]: 1.5 nM

Cc1c(-c2[nH]c3ccc(N4C[C@@H](C)N(C(=O)CN5CCCC5)[C@H](C)C4)nc3c2C(C)C)cn2ncnc2c1C [Example 928]
IC50 [1, 7]: 1.5 nM
IC50 [2, 8]: 3640 nM
IC50 [3, 9]: 6.9 nM

Cc1c(-c2[nH]c3ccc(C4CN(CCS(C)(=O)=O)C4)nc3c2C(C)C)cn2ncnc2c1C [Example 653, 6-(3-isopropyl-5-(1-(2-(methylsulfonyl)ethyl)azetidin-3-yl)-1H-pyrrolo[3,2-b]pyridin-2-yl)-7,8-dimethyl-[1,2,4]triazolo[1,5-a]pyridine]
IC50 [1, 10]: 5.5 nM
IC50 [2, 11]: 13200 nM
IC50 [3, 12]: 13 nM

Cc1c(-c2[nH]c3ccc(C4CCC(NCCC(F)(F)F)CC4)nc3c2C(C)C)cn2ncnc2c1C (stereo not drawn) [Example 376]
IC50 [1, 4]: 0.71 nM
IC50 [2, 5]: 1030 nM
IC50 [3, 6]: 1.2 nM

Cc1c(-c2[nH]c3ccc(C4CCN(CCS(C)(=O)=O)CC4)nc3c2C(C)C)cn2ncnc2c1C [Example 556]
IC50 [1, 10]: 1.7 nM
IC50 [2, 11]: 5080 nM
IC50 [3, 12]: 1.1 nM

COc1cc(-c2[nH]c3cc(C)c(C4CCC(N(C)CC(C)(C)C)CC4)nc3c2C(C)C)cn2ncnc12 (stereo not drawn) [Example 334]
IC50 [1, 4]: 4.6 nM
IC50 [2, 5]: 2400 nM
IC50 [3, 6]: 127 nM

Cc1c(-c2[nH]c3ccc(N4CCN(CCC#N)CC4)nc3c2C(C)C)cn2ncnc2c1C [Example 148]
IC50 [1, 4]: 97 nM
IC50 [2, 5]: > 50000 nM
IC50 [3, 6]: 16 nM

Cc1c(-c2[nH]c3ccc(N4C5CNCC4C5)nc3c2C(C)C)cn2ncnc2c1C [Example 978]
IC50 [1, 7]: 11 nM
IC50 [2, 8]: 11500 nM
IC50 [3, 9]: 1.8 nM

Cc1c(-c2[nH]c3ccc(N4CCN(C(=O)CN5CC6(COC6)C5)C[C@H]4C)nc3c2C(C)C)cn2ncnc2c1C [Example 931]
IC50 [1, 7]: 2.5 nM
IC50 [2, 8]: 14900 nM
IC50 [3, 9]: 3.9 nM

Cc1c(-c2[nH]c3ccc(N4CCC(N(C)C5CCOCC5)CC4)nc3c2C(C)C)cn2ncnc2c1C [Example 55]
IC50 [1, 4]: 2.1 nM
IC50 [2, 5]: 3340 nM
IC50 [3, 6]: 0.39 nM

Cc1c(-c2[nH]c3ccc(N4C[C@H]5C[C@@H](C4)N5CCC(N)=O)nc3c2C(C)C)cn2ncnc2c1C [Example 756]
IC50 [1, 10]: 3.9 nM
IC50 [2, 11]: 9060 nM
IC50 [3, 12]: 6 nM

Cc1c(-c2[nH]c3ccc(C4CCC(N(CC#N)CC5(S(C)(=O)=O)CC5)CC4)nc3c2C(C)C)cn2ncnc2c1C (stereo not drawn) [Example 478]
IC50 [1, 10]: 13 nM
IC50 [2, 11]: 24500 nM
IC50 [3, 12]: 15 nM

Cc1c(-c2[nH]c3ccc(N4C[C@@H](C)N(C(=O)CCN5CCOCC5(C)C)C[C@@H]4C)nc3c2C(C)C)cn2ncnc2c1C [Example 963]
IC50 [1, 7]: 0.84 nM
IC50 [2, 8]: 35300 nM
IC50 [3, 9]: 1.9 nM

Cc1c(-c2[nH]c3ccc(C4CCC(NC5CC5)CC4)nc3c2C(C)C)cn2ncnc2c1C (stereo not drawn) [Example 421]
IC50 [1, 10]: 1.6 nM
IC50 [2, 11]: 2060 nM
IC50 [3, 12]: 1.8 nM

CC(C)c1c(-c2cn(C)c3ncccc23)[nH]c2ccc(C3CCC(NC4CCOCC4)CC3)nc12 (stereo not drawn) [Example 267]
IC50 [1, 4]: 1.9 nM
IC50 [2, 5]: 453 nM
IC50 [3, 6]: 2.6 nM

Cc1c(-c2[nH]c3ccc(C4CC(NCC5(C)COC5)C4)nc3c2C(C)C)cn2ncnc2c1C (stereo not drawn) [Example 637]
IC50 [1, 10]: 3.8 nM
IC50 [2, 11]: 1360 nM
IC50 [3, 12]: 0.53 nM

CNC1CCC(c2ccc3[nH]c(-c4cn5ncnc5c(C)c4C)c(C(C)C)c3n2)CC1 (single isomer, unassigned) [Example 367, 4-(2-(7,8-dimethyl-[1,2,4]triazolo[1,5-a]pyridin-6-yl)-3-isopropyl-1H-pyrrolo[3,2-b]pyridin-5-yl)-N-methylcyclohexanamine]
IC50 [1, 4]: 1.5 nM
IC50 [2, 5]: 838 nM
IC50 [3, 6]: 3.5 nM

Cc1c(-c2[nH]c3ccc(C4CCC(N)CC4)nc3c2C(C)C)cn2ncnc2c1C (stereo not drawn) [Example 466]
IC50 [1, 10]: 59 nM
IC50 [2, 11]: 5800 nM
IC50 [3, 12]: 204 nM

Cc1c(-c2[nH]c3ccc(C4CC(N(C)C(=O)CN(C)C)C4)nc3c2C(C)C)cn2ncnc2c1C (stereo not drawn) [Example 615]
IC50 [1, 10]: 2.4 nM
IC50 [2, 11]: 1960 nM
IC50 [3, 12]: 7.9 nM

Cc1cc(-c2[nH]c3ccc(C4CN(C)CCO4)nc3c2C(C)C)cn(C)c1=O (stereo not drawn) [Example 665]
IC50 [1, 10]: 34 nM
IC50 [2, 11]: > 50000 nM
IC50 [3, 12]: 17 nM

Cc1c(-c2[nH]c3ccc(N4CCN(C(=O)CN(C)CC5CC5)CC4)nc3c2C(C)C)cn2ncnc2c1C [Example 966]
IC50 [1, 7]: 2.4 nM
IC50 [2, 8]: 6020 nM
IC50 [3, 9]: 1.3 nM
